{"source": "paper PMC12647017", "about": "“Discovery and optimization of a synthetic small protein domain targeting antibodies” (Frontiers in Bioengineering and Biotechnology, 2025)", "key": {"[1]": {"assay": "Solubility / precipitation observed during production, dialysis and purification", "format": "physicochemical", "settings": "lead ligand sequences from WWp5_4 naïve library", "description": "Therefore, after expression the soluble fractions were further centrifuged at 42,000 g for 20 min at 4 °C. As the samples were diluted (∼5 mg/mL in 25 mL lysis buffer), the soluble fractions were lyophilized and resuspended in 4 mL of water. The samples were dialyzed (Membranes Spectra Pre-Treated 1 kDa, Carl Roth) to Binding buffer without imidazole (20 mM Sodium Phosphate, 500 mM Sodium Chloride pH 7.4) for 24 h at 16 °C. The samples were quantified by […] (typically ∼6 mg/mL), this solution was diluted 1:2 in Binding buffer (20 mM Sodium Phosphate, 500 mM Sodium Chloride, 20 mM imidazole pH 7.4) and purified in a gravitational flow with 6 mL of resin (IMAC Sepharose 6 Fast Flow (Ni^2+), Cytiva) packed in a PD-10 column. The column was prepared using the indications of the manufacturer. The binding of the protein to the column was maximized by an incubation for 1 h at room temperature in agitation at 40rpm. The resin was washed 4 x column volumes (CV) with binding buffer. The elution as achieved by incubation for 15min with elution buffers. We used a gradient with 3 x CV elution buffer 1 (binding buffer with 100 mM imidazole) and 3 x CV elution buffer 2 (binding buffer with 200 mM imidazole).\nThe most enriched elutions in WW domains (60%–70% purity) were combined and dialysed against PBS1x (10 mM Na2HPO4, 1.8 mM KH2PO4, 2.7 mM KCl, 137 mM NaCl pH 7.4) with routine changes of buffer up to 48 h at 16 °C. Following the samples were concentrated with a Amicon-Ultra15 3 kDa MWCO (Millipore) with centrifugation conditions 4,900 g, 30 min, 4 °C. The final samples were quantified by BCA assay.\nSize Exclusion Chromatography (SEC). The samples were further purified by SEC to achieve 90% purity in a AKTA system (Cytiva). The column Superdex 75 Increase 10/300 GL (29148721, Cytiva) was washed with water and equilibrated 2CV in PBS1x, as described by the manufacturer. As calibrants we prepare a mixture: 2 mg/mL of Bovine Serum Albumin (66 kDa, BP9702-100, FisherScientific), Ovalbumin (42 kDa, A5503-1G, Sigma), Chicken Lysozyme ([…], 62,971–10G-F, Fluka) and hPin1_WW chemically synthesized (5 kDa, produced in ([Dias et al., 2015])) in PBS 1x, this sample was filtered with 0.2 µm PES (514–0073, VWR) and analysed. The operation conditions: flow 0.5 mL/min, 0.05 CV in PBS1x and injection of 250 µL and run for 2 CV with PBS 1x at 16 °C. The same method was used for the WW domain samples. After purifications samples were quantified for total protein by BCA assay, as described previously and used for characterization."}, "human IgG": {"tested_on": "human IgG", "assay": "Microscale Thermophoresis (MST) with IgG-FITC", "format": "binding", "settings": "E6, IgG-FITC 50 nM, E6 23.5 µM to 0.7 nM, 50 mM MOPS 0.05% (v/v) Tween-20 pH 7, 25 °C, n = 4", "description": "For MST assays of E6, IgG was conjugated with fluoresceine isothiocyanate (FITC) using standard protocols. The conjugated IgG-FITC was used at a fixed concentration of 50nM and 16 serial dilutions of E6 protein (from 23.5 µM to 0.7 nM) were made in 50 mM MOPS 0.05% (v/v) Tween-20 pH 7.\nFor MST assays of E6_M2_T2, the target was hIgG-FITC (F9636, Sigma) at a constant concentration of 25 nM. For the E6_M2_T2 ligand, 16 samples were prepared in variable concentrations starting from 695 nM and using a serial dilution of 1:2 up to a minimum concentration of […] using PBS1x-0.05% (v/v) Tween-20 pH7.4.\nSamples were transferred to a standard capillary (Monolith NT.115 Capillary, Nanotemper) with the following settings: medium MST-power, excitation power at 20%, with excitation in Nano-Blue, with thermostat at 25 °C. The signal of the samples was read in triplicates using a Monolith NT.115 (Nanotemper) and the signal was processed in the manufacturer software with FitModel: Kd and Hill. The binding parameters (KD and EC50) and were estimated automatically in the MST software."}}}
{"sequence": "SMGLPPGWDEYKT RRFKL GKTYYYNH HILS KTSTWTDPRMSS [Clone E6]", "values": [{"measurement": "solubility observed in production and purification", "setting": "[1]", "result": "limited solubility"}, {"measurement": "EC50", "setting": "human IgG", "result": 146, "unit": "nM"}, {"measurement": "Kd", "setting": "human IgG; read-out: dissociation constant, KD", "result": "133 ± 48", "unit": "nM"}]}
